# Experimental data from patent US20090054526A1, “INHIBITORS OF ANOREXIC LIPID HYDROLYSIS FOR THE TREATMENT OF EATING DISORDERS” (priority 2005, published 2009).
# Assays:
# ceramidase = test: Ceramide hydrolysis in rat intestinal homogenate; type: biochemical; details: for inhibition of ceramide hydrolysis: pH 7.0, 50 μM 14C-octanoyl-D-sphingosine, 25 μg protein, 20 min, inhibitor concentration not given ('same concentration')
# Procedure: Enzymatic hydrolysis of ceramide is measured in an assay containing 5-500 μg of intestinal protein incubated with 1-5000 μM of ^14C-ceramide [(N-[1-^14C]acyl-D-erythro sphingosine (with the acyl group being from six to twenty carbon atoms) and dilutions thereof with non-radioactive ceramide to obtain a specific activity of 0.1-100,000 dpm/pmol], which is sonicated in buffer or added in 5-50 μl of ethanol, to a total volume of 50-500 μl of 10-100 mM buffer (pH 3-11) initially utilizing 100 mM Tris-HCl (pH 8.0) containing 0-100 mM CHAPS, 0-10 mM DTT, 0-1% Nonidet P-40, 0-5 mg/ml of bovine serum albumin, and 0-500 mM NaCl with or without addition of D-erythro-MAPP (or a related compound; dissolved 1-10 μl ethanol) in a final concentration of 0.0001-1000 μM (1-10 μl ethanol is added to control assays). Incubations are carried out at 37° C. for 0-120 min and samples are withdrawn at 2-3 time points. The reaction in each sample is terminated by addition of 200-1000 μl of methanol:chloroform:heptane (28:25:20 v/v/v) and 50-400 μl of potassium carbonate buffer (pH 10). After mixing, the samples are centrifuged 1-20 min at low speed centrifugation and 50-400 μl of the upper phase is extracted and the radio-labeled product, free fatty acid, in the upper phase is quantified by liquid scintillation counting. From selected samples, another 50-400 μl aliquot of the upper phase as well as 50-400 μl of the lower phase are evaporated to dryness under a stream of nitrogen, re-dissolved in 10-200 μl of chloroform:methanol (19:1 v/v) and applied on thin-layer chromatography plates, eluted in chloroform:methanol:acetic acid (94:1:5 v/v/v) followed by quantification of the distribution of the radiolabeled free fatty acid in the two phases using a Phosphorlmager scanner (STORM; Molecular Dynamics, Sunnyvale, Calif., USA) and ImageQuant software (GE Health Care, Amersham, United Kingdom). The distribution of released fatty acid is used to calculate the total amount of product formed in each sample. […]
# [1] = system: acylethanolamide hydrolyzing enzyme (FAAH and an enzyme different from FAAH) in rat intestinal homogenate; test: OEA and anandamide (acylethanolamide) hydrolysis in rat intestinal homogenate; type: biochemical; details: for inhibition of OEA hydrolysis: pH 7.0, 50 μM 3H-OEA, 20 min, inhibitor concentration not given ('same concentration')
# Procedure: Enzymatic hydrolysis of OEA is investigated in an assay containing 5-500 μg of intestinal protein incubated with 1-500 μM of ^3H-OEA ([1-^3H-ethanolamine]OEA and dilutions thereof with non-radioactive OEA to obtain a specific activity of 0.1-100,000 dpm/pmol) or ^3H-anandamide ([1−^3H-ethanolamine]anandamide and dilutions thereof with non-radioactive anandamide to obtain a specific activity of 0.1-100,000 dpm/pmol) in a total volume of 100-500 μl of 10-100 mM buffer (pH 3-11), initially utilizing 100 mM Tris-HCl (pH 8.0) containing 0-2 mM EDTA and 0-5 mg/ml of fatty acid-free bovine serum albumin with or without addition of D-erythro-MAPP (or a related compound; dissolved in 1-10 μl ethanol) in a final concentration of 0.0001-1000 μM (1-10 μl ethanol is added to control assays). Incubations are carried out at 37° C. for 0-120 min and samples are withdrawn at 2-3 time points. The reaction in a sample is terminated by addition of 200-1000 μl of chloroform:methanol (1:1 v/v) and cooling on ice, followed by 10 min centrifugation at low speed, where after 50-250 μl of the upper phase is extracted and the radio-labeled product ethanolamine formed is quantified by liquid scintillation counting. […]
# The reaction in a sample is terminated by addition of 400 μl chloroform:methanol (1:1 v/v) and cooling on ice, followed by 10 min centrifugation at low speed, where after 100 μl of the upper phase is extracted and the radio-labeled product ethanolamine formed is quantified by liquid scintillation counting. In another set of experiments the following assay conditions are adjusted—in order to be identical to those of the ceramidase assay (see example 1B)—by using 25 μg of protein from rat intestinal (jejunum) homogenate in a total volume of 100 μl, 50 μM of ^3H-oleoylethanolamide (OEA; 25.000 dpm) or ^3H-anandamide (AEA; 25.000 dpm), 100 mM citrate phosphate (7.0), 8 mM CHAPS. […] Incubation at 37° C. is carried out for 0 and 20 min after establishment of linearity of product formation within this time frame. […]
# dietary obese mice = test: Sub-chronic food intake, water intake and body weight study in dietary obese mice; type: in vivo; details: for cumulative food intake: D-threo-NMAPPD 30 mg/kg, OEA 2 mg/kg, or both mixed, high-fat diet, mean±SEM
# Procedure: Food intake studies are performed with male Sprague-Dawley rats (250-350 g) or male C57BL/6J mice (Charles River, Sulzfeld, Germany). […] These animals are left on the diet for 12 weeks before the experiment is commenced. The animals are group randomized into weight-matched groups of n=4-12 to receive up to four administrations (0.1-10 ml/kg p.o., i.p., s.c., or i.v.) of a test compound (e.g. MAPP or NMAPPD) or vehicle (saline optionally with Tween 80, polyethylene glycol, DMSO, ethanol, Cremophor excipient) with at least seven days interval. All compounds are administered just prior to the beginning of the dark period optionally after a 24 h fasting period. Food intake (digital balance) and water intake (registered gravimetrically or by means of lick counts) and activity (consecutive beam breaks) are monitored for at least 12 hours following the time of injection. After the treatment, the animals are euthanized by use of CO2 followed by decapitation.
# 3C. Furthermore, a study with dietary obese mice was carried out. After 12 weeks on high-fat diet, animals were stratified according to weight. At day −3, animals were randomised in 5 groups (n=9-10 in each group) to participate in one of following drug treatment groups; vehicle (5% Tween 80, 5% polyethylene glycol, 90% saline), OEA 2 mg/kg, OEA 5 mg/kg, D-threo-NMAPPD 30 mg/kg, D-threo-NMAPPD 30 mg/kg+OEA 2 mg/kg (mixed). The animals received one intraperitoneal injection daily (2 ml/kg) of vehicle or drug(s) suspended in vehicle at […]. The experiment was preceded by a 3 day run-in period with mock injections and handling to habituate the animals to the injection paradigm. On day 0 the animals were dosed for the first time. All animals were fed high-fat diet ad lib—also during the treatment period. Body weight, food and water intake was measured every other day for the following 14 days depending on the animal's state.
# diet-induced obese rats = details: 5 mg/kg OEA i.p. daily, from day 2 and on, refs (9,22); cited from earlier work
# diet-induced obese mice = details: 5 mg/kg OEA i.p. daily, from day 2 and on, refs (9,22); cited from earlier work
structure (smiles),measurement,setting,value
"CCCCCCCCCCCCCC(=O)N[C@H](CO)[C@H](O)c1ccc([N+](=O)[O-])cc1 [D-threo-NMAPPD, (1R,2R) D-threo-N-myristoyl-2-amino-1-(4′-nitrophenyl)-1,3-propandiol]",inhibition of ceramide hydrolysis,ceramidase,30%
same,inhibition of OEA hydrolysis,[1]; 25 μg protein,30%
same,dose dependence of inhibition of OEA hydrolysis,"[1]; pH 7.0, increasing concentrations (FIG. 2C)",dose-dependent inhibition
same,food intake versus vehicle,"dietary obese mice; D-threo-NMAPPD 30 mg/kg i.p. daily (alone and with OEA 2 mg/kg), from day 1",consistently and significantly reduced
same,water intake versus vehicle,"dietary obese mice; daily i.p., D-threo-NMAPPD 30 mg/kg at day 1 and day 12, or with OEA 2 mg/kg (FIG. 4B)",significant decreased water intake
same,loss of body weight,"dietary obese mice; day 12, daily i.p., D-threo-NMAPPD 30 mg/kg alone or with OEA 2 mg/kg, vehicle 3.7%",8.9%
same,cumulative food intake,"dietary obese mice; day 12, daily i.p.",20.4 ± 1.2 g
"CCCCCCCC/C=C\CCCCCCCC(=O)NCCO [OEA, oleoylethanolamide, reference compound]",body weight change,diet-induced obese rats,reduced body weight change
same,body weight change,diet-induced obese mice,reduced body weight change
same,food intake versus vehicle,"dietary obese mice; OEA 2 mg/kg i.p. daily, day 12",not significantly different
same,food intake versus vehicle,"dietary obese mice; OEA 5 mg/kg i.p. daily, day 5 and 7",significantly reduced food intake
same,cumulative food intake,"dietary obese mice; day 12, daily i.p.",23.3 ± 1.0 g
"NC(=O)c1cccc(-c2cccc(OC(=O)NC3CCCCC3)c2)c1 [URB597, cyclohexyl carbamic acid 3′-carbamoyl-biphenyl-3-yl ester, reference compound]",effect on ceramide hydrolysis over pH range,"ceramidase; 10 μM URB597, pH profile (FIG. 3C)",completely unaffected
same,effect on hydrolysis of OEA and AEA over pH range,"[1]; 10 μM URB597, pH 5.5 to pH 10.5 (FIG. 3C)",to varying degrees were inhibited
same,inhibition of acylethanolamide hydrolysis,"[1]; 10 μM inhibitor, pH 7.0, 50 μM substrate, 25 μg protein, 20 min 37° C. (FIG. 2A)",approximately 79%
"CCCCCCCCCCCCCC(=O)N[C@H](C)[C@@H](O)c1ccccc1 [D-erythro-MAPP, (1S,2R) D-erythro-N-myristoyl-2-amino-1-phenyl-propanol]",inhibition of ceramide hydrolysis,ceramidase,approximately 24%
same,inhibition of OEA hydrolysis,[1]; 25 μg protein,11%
same,effect on AEA hydrolysis,"[1]; pH 7.0, 50 μM 3H-anandamide, inhibitor concentration not clearly printed",unaffected
